Values quoted from earlier work in article PMC4559881 (Molecular Neurodegeneration, 2015).
Where two headings read alike, the source gives them in different places.

Legend:
[1] = system: deposited Aβ; design: method as in PMID 25164658; settings: APP London mice, 4 months of dosing, 30 mg/kg; cited from earlier work
[2] = human, in vivo; cited from earlier work
[3] = cited from earlier work
[4] = system: CSF Aβ; design: method as in PMID 22090477; settings: dogs, oral dose of 5 mg/kg; cited from earlier work
[5] = system: brain Aβ; design: method as in PMID 22090477; settings: PDAPP mice, doses ≥ 30 mg/kg p.o.; cited from earlier work
[6] = system: CSF Aβ; design: method as in PMID 22090477; settings: healthy volunteers, cited from earlier work

SMILES: C[C@]1(c2cc(NC(=O)c3ccc(C#N)cn3)ccc2F)N=C(N)OCC1(F)F [RO5508887]
- reduction of total deposited Aβ40 [1]: 28%
- reduction of total deposited Aβ42 [1]: 45%

SMILES: NC1=N[C@@]2(c3cc(NC(=O)c4ccc(F)cn4)ccc3F)COC[C@H]2CS1 [LY2886721]
- liver finding in AD patients [2]: elevation of liver enzymes

SMILES: CC1(C#Cc2cnc3c(c2)[C@]2(COC(N)=N2)c2cc(-c4cccnc4F)ccc2O3)COC1 [AMG-8718]
- toxicity finding in rats ([3]; high doses): retinal toxicity

SMILES: C[C@@]1(c2cc(-c3cncnc3)c(F)cc2F)CCSC(N)=N1 [LY2811376]
- reduction of CSF Aβ [4]: approximately 70%
- toxicity finding in rats [3]: neuronal lipofuscinosis and degeneration
- reduction of brain Aβ [5]: > 60%
- change of CSF Aβ ([6]; oral dose 30 mg): -20%
- change of CSF Aβ ([6]; oral dose 90 mg): -54%
